Measured values reported in patent US20100179188A1, “NITROXIDE RADICAL AS TREATMENT FOR NEURODEGENERATION” (Office of Technology Transfer, NIH, priority 2007, published 2010).

Legend:
IRP2−/− mice = assay: Hang-test of IRP2−/− mice on Tempo1-supplemented diet; format: in vivo
Source text: Mice: IRP2−/− mice were generated, propagated by breeding and genotyped as described in LaVaute et al., Nature Genetics, 27, 209-214 (2001). Mice used in this study have a 129S4/SvJae X C57B1/6 mixed background (specific proportions of each strain are not known). In experiments with mice of same genotype but on different diets siblings were used to minimize phenotypic variation due to differences in genetic background. Mice of different genotypes and on different diets were age and sex matched. All protocols were approved by the National Institute of Child Health and Human Development Animal Care and Use Committee, and met US National Institutes of Health guidelines for the humane care of animals. […]
Hang-test: In the hang-test, mice were allowed to grip a wire mesh that was then inverted. The length of time that a mouse could hang on to an inverted wire mesh before falling (up to a maximum of 60 seconds) was measured and recorded.
A stable nitroxide radical, Tempo1, was administered as a dietary supplement to knockout mice (IRP2−/−), and neurodegeneration was tested using the “hang test,” by which mice were allowed to grasp a wire mesh screen in an inverted position and the length of time that the mice could remain grasping the screen was measured (up to a maximum of 60 seconds). The hang test quantitatively assesses the progression of neurodegeneration in mice. […]

mitochondrial aconitase = target: T1, mitochondrial aconitase (Mus musculus, UniProt Q99KI0); assay: In-gel aconitase assay in mouse embryonic fibroblasts, mitochondrial aconitase; format: cell-based
T1 construct: endogenous in cells; host or cells: mouse embryonic fibroblasts
T1 sequence (Q99KI0 28-780): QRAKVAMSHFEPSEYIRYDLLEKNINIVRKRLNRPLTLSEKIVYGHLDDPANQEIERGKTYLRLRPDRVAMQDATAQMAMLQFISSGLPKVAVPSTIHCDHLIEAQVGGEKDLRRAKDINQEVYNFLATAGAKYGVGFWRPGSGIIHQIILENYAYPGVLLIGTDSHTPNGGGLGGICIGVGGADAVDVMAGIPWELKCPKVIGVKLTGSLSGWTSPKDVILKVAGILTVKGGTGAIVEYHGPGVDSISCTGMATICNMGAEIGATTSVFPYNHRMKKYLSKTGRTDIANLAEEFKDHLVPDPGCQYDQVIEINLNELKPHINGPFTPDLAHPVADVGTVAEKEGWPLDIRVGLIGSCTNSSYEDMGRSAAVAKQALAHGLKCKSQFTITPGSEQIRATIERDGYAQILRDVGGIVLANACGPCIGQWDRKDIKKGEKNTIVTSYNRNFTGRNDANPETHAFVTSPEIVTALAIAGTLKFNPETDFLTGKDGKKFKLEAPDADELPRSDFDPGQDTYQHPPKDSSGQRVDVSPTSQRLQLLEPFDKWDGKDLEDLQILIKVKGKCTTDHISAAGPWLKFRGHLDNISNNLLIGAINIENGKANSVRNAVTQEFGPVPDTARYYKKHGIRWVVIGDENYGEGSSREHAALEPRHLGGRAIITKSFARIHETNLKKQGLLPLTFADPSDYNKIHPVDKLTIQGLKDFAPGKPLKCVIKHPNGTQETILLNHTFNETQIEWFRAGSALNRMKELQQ
Method: Cells: Embryonic fibroblasts of 13-day old embryos were isolated from wild type, IRP1−/− mice and IRP2−/− mice as described in LaVaute et al. supra. Myc-tagged HEK 293 Tet-on cell line, in which IRP2 expression was inducible, was prepared and cultured as described Bourdon et al., Blood Cells Mol Dis, 31, 247-255 (2003). Erythroblasts were harvested from bone marrow and purified as described in Cooperman et al., Blood, 106, 1084-1091 (2005).
Aconitase assay: Aconitase activity gels for human lysates were performed as described in Tong et al., infra, and aconitase activity gels for mouse lysate were performed with the following modifications. […] Spectral aconitase activity was measured by following the method of Fillebeen et al., infra, using cis-aconitate as the substrate.
To determine whether the effect of Tempo1 on IRP1 activity was kinetically consistent with oxidative disassembly of the iron sulfur cluster, the effect of Tempo1 on aconitase activity was compared to that of the iron chelator, deferiprone (DFO), which activates IRE-binding activity of IRP1 by limiting de novo synthesis and repair of the iron sulfur cluster in IRP1. […] Recovery of aconitase activity was assessed in wild type and IRP2−/− cells.

In the case of `CC1(C)CC(O)CC(C)(C)N1[O]` [Tempo1], the hang times (IRP2−/− mice; IRP2−/− mice on Tempo1 supplemented diet (10 mg/g of food) vs untreated knockout mice, max 60 seconds) is reported as “substantially increased”, the “protection from progressive loss of neuromuscular capability” value (IRP2−/− mice; IRP2−/− mice on Tempo1 supplemented diet, hang test, FIG. 1c) is reported as “significantly (p value=0.009) protected” and the mitochondrial aconitase activity (mitochondrial aconitase) is reported as “does not substantially affect”.
